For one experiment, the system named is ZAP70. Kind of experiment: ZAP70 phosphorylation in live cells recovered from T cell culture. To be noted: live cells recovered from the culture. The experiment is classed as cell-based.
The test system of experiment [1] is thioglycolate-induced macrophages. Kind of experiment: Annexin V/PI apoptosis detection, macrophages. The format is cell-based. Here is the method: (§1) Cell apoptosis was detected with Annexin V/PI apoptosis detection Kit. Briefly, cells were stimulated with HSLs or left untreated. 6 hrs later, cells were collected and stained with Annexin VFITC and PI for 15 min at RT, then the apoptotic effect was measured by flow cytometry. OT-I or OT-II splenocytes were pulsed with specific peptides or PMA and ionomycin mixture with or without HSLs or TNF α plus cycloheximide. 24 hrs later, cells and supernatants were collected separately. For OT-I activation, cells were stained with CD69 and CD8. For OT-II activation, cells were stained with CD69 and CD4. Cell activation was measured by flow cytometry. All supernatants were detected for IL-2 secretion by ELISA.

Another experiment concerns RAW264.7 cells. Kind of experiment: Phagocytosis assay. The format is cell-based. As to the method: For Phagocytic assay, polystyrene beads were coated with BSA plus mouse anti-BSA Ab via commercial methods. Before experiment, RAW264.7 cells were cultured on clean glass slices in 24-hole plate with Opti-MEM. Cells were co-cultured with coated beads, centrifuged at 900 g, 4° C. for 5 min and cultured at 37° C. for 45 min. Then cells were fixed with 4% paraformaldehyde and stained with 488 nm anti-mouse fluorescent Ab for immunofluorescent imaging. For analysis, total number of beads on each cell was calculated under bright field, the number of beads which were not engulfed were calculated under fluorescent lighting.

Another experiment concerns the target T1, TNFR1 (Mus musculus, UniProt P25118).
T1 construct: To track individual TNFR1 on the cell membrane; endogenous in cells
T1 sequence (P25118 30-454): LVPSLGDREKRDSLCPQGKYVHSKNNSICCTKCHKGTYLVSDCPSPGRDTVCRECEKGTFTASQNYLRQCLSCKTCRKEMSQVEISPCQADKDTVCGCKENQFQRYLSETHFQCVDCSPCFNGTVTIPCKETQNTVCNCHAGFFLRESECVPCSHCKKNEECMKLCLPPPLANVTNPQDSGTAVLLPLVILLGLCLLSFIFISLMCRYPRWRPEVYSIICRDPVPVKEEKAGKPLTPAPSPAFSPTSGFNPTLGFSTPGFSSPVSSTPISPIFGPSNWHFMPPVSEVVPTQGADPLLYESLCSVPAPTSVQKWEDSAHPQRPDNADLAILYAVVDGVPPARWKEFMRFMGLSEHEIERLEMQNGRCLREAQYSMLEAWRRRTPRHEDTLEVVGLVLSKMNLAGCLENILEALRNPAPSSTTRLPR
Kind of experiment: Quantum dot-based single particle tracking, TNFR1. The format is cell-based. As to the method: To track individual TNFR1 on the cell membrane, anti-TNFR1 IgG (was first papain digested to yield a Fab fragment. The Fab was then conjugated with biotin through the unique —SH at its C terminal. To prepare anti TNFR1 Fab QD conjugates, a solution of 0.7 nM anti TNFR1—Fab-biotin in 1 ml of DMEM was added drop-wise to 1 ml of 2 nM QD 605-streptavidin conjugate. Cell monolayers (50% confluent) previously serum starved for 1 hr were treated with 3OC12 HSL or left untreated and incubated with […] of the final anti TNFR1-Fab-QD solution at 25° C. for 2 min. The cells were then washed twice with PBS at 25° C., placed in serum-free medium, and loaded for imaging. For single-FcRγIIA tracking, Fc fragment was obtained by papain digestion of an anti-BSA IgG (Sigma Aldrich). Fc-QD conjugate was produced as described before. Cos-1 cells were transiently transfected with Fcγ RIIA plasmid, 24 hrs later, cells were stimulated with 3OC12 HSL or left untreated and incubated with […] of the final Fc-QD solution at 25° C. for 2 min. Quantum dot-labeled cells were imaged in TIRF mode. The fluorescence was excited at 488 nm and gated by a band-pass filter (575-640, Carl Zeiss). The excitation power was about 2 mW measured after the objective. Movies of 400 frames were acquired for each sample at a full-frame rate of 17 Hz. Individual trajectories were constructed by Utrack written in Matlab. Diffusion coefficient and plot area were calculated by customized programs written with Matlab. For motion pattern determination by MSD-t analysis 5: linear, simple Brownian diffusion; open-up parabolic, directed diffusion; open-down parabolic, restricted diffusion; and near zero, stationary.

Another experiment concerns Fas. Description: DTSSP cross-linking assay, Fas. The experiment is classed as cell-based. Conditions: crosslinker DTSSP, prolonged incubation. Here is the method: For FADD immunoprecipitation, 4 μg anti-mouse FADD pAb (Santa Cruz, H-181) were incubated with 100 μl protein A/G agarose for 2 hrs at RT. 3 million/ml purified CD4 T cells were stimulated with HSLs or left untreated. The cells were then collected and lysed with IP lysis buffer (50 mM HEPES pH 7.4, 150 mM NaCl, 1% NP-40, 1 mM EDTA, 1 mM PMSF, 1 mM NaF, 1 mM NaVO3 and protease inhibitor cocktails). The cell lysates were added into antibody-bead mixtures for 3 hrs at 4° C. Beads were then collected by low speed centrifugation (1000 g, 5 min) and washed 4 times with IP lysis buffer (300 mM NaCl added). After the last wash, pellets were suspended with 70 ul 2×SDS loading buffer and boiled for 5 min. For caspase 8 immunoprecipitation, 4 μg anti-Caspase 8 pAb (Santa Cruz, C-20) was incubated with 100 μl protein A/G agarose for 1 hr at RT. 3 million/ml H9 cells were treated with HSLs or left untreated. The samples were processed as in FADD IP. For cross-linking assay, CD4+ T cells isolated from C57BL/6 mice spleen or human THP-1 cells was stimulated with HSLs or left untreated, then cells were collected and cross-linked by 10 mM DTSSP at RT for 30 min and quenched with 1M Tris-HCl (pH7.5) for 15 min. […]

The next experiment has as its system lymphoblast H9. Kind of experiment: Annexin V/PI apoptosis detection, H9. The format is cell-based, human. Here is the method: as §1
Another experiment concerns caspases 8 and 3. Description: Caspase 8 and 3 cleavage in CD4 T cells (Western blot), mouse. The experiment is classed as cell-based. Conditions: mouse (FIG. 2d). In general terms: In western blotting, separated proteins are transferred to a membrane and probed.

For the molecule `CCCCCCCCCC(=O)CC(=O)N[C@H]1CCOC1=O` [3OC12 HSL, N-(3-oxo-dodecanoyl) homoserine lactone], the ZAP70 phosphorylation result in the experiment with ZAP70 was “minimally affected”. Further, the “sensitivity to 3OC12 HSL” value in experiment [1] is “relatively resistant”. Moreover, the “attachment of beads to cells” value in the experiment on RAW264.7 cells is on record as “not affected”. Further, in the experiment with RAW264.7 cells (without 3OC12 HSL 4.6), the “phagocytosis of antibody-coated latex beads” value was 2.6+/−0.2%. Also, at TNFR1, the TNFR1 diffusion coefficient entry is recorded as “significantly increased” and the “TNFR1 x-y surface area coverage” value was “high x-y surface area coverage”. For the same molecule, the TNFR1 motion pattern entry at TNFR1 (MSD analysis) is recorded as “more likely to fall into the simple mode of motion”. For the same molecule, the Fas oligomerization entry in the experiment with Fas is recorded as “did not show a significant change”. Moreover, the “sensitivity to 3OC12 HSL” value in the experiment with lymphoblast H9 is on record as “relatively resistant”. Further, in the experiment on caspases 8 and 3, the “caspase 8 and 3 cleavage” value was “cleaved in a dose and time-dependent manner”.

The values above are taken from patent US11583570B2, “Use of autoinducer-related pathway in inducing apoptosis and anti-infective therapy” (TSINGHUA UNIVERSITY, priority 2017, dated 2023).
